22 compounds from PubChem BioAssay AID318 (DTP/NCI, 2004) can be followed below.

Molecules are shown by their SMILES. Where “and” joins values, the source holds several entries; their conditions need not be identical. Equal values may be shown once. Toxic doses and inconclusive results are not listed.

This experiment concerns BDF1 mice, P815 leukemia ip, survival T/C. Description: NCI In Vivo Anticancer Drug Screen. Data for tumor model P815 Mast Cell Leukemia (Ascitic) (intraperitoneal) in B6D2F1 (BDF1) mice. Conditions: higher = longer survival. As to the method:
The antitumor activity of compounds was measured in mice bearing transplantable tumors. Survival or tumor size were measured and the results are expressed as the measurement made in the treated group (T) divided by the measurement made in the vehicle treated control group (C). The tumor model used in this assay is P815 Mast Cell Leukemia (Ascitic) (intraperitoneal) in B6D2F1 (BDF1) mice

The mark [1] stands for this setting: endpoint: survival time, mean or median, dose: 2.0 mg/kg/injection, schedule: Q01DX010 (ip), vehicle: saline.
Setting [2] is: endpoint: survival time, mean or median, dose: 10.0 mg/kg/injection, schedule: Q01DX010 (ip), vehicle: saline.
Where [3] appears, read: endpoint: survival time, mean or median, dose: 20.0 mg/kg/injection, schedule: Q01DX010 (ip), vehicle: saline.
Where [4] appears, read: endpoint: survival time, mean or median, dose: 40.0 mg/kg/injection, schedule: Q01DX010 (ip), vehicle: saline.
The mark [5] stands for this setting: endpoint: survival time, mean or median, dose: 16.0 mg/kg/injection, schedule: Q01DX010 (ip), vehicle: saline.
Where [6] appears, read: endpoint: survival time, mean or median, dose: 32.0 mg/kg/injection, schedule: Q01DX010 (ip), vehicle: saline.
Where [7] appears, read: endpoint: survival time, mean or median, dose: 64.0 mg/kg/injection, schedule: Q01DX010 (ip), vehicle: saline.
[8] abbreviates: endpoint: survival time, mean or median, dose: 10.0 mg/kg/injection, schedule: Q01DX015 (ip), vehicle: carboxymethylcellulose (CMC).
Setting [9] is: endpoint: survival time, mean or median, dose: 20.0 mg/kg/injection, schedule: Q01DX015 (ip), vehicle: carboxymethylcellulose (CMC).
[10] abbreviates: endpoint: survival time, mean or median, dose: 80.0 mg/kg/injection, schedule: Q01DX010 (ip), vehicle: saline.
The mark [11] stands for this setting: endpoint: survival time, mean or median, dose: 18.8 mg/kg/injection, schedule: Q01DX010 (ip), vehicle: saline.
The mark [12] stands for this setting: endpoint: survival time, mean or median, dose: 37.5 mg/kg/injection, schedule: Q01DX010 (ip), vehicle: saline.
[13] abbreviates: endpoint: survival time, mean or median, dose: 75.0 mg/kg/injection, schedule: Q01DX010 (ip), vehicle: saline.
Setting [14] is: endpoint: survival time, mean or median, dose: 3.13 mg/kg/injection, schedule: Q01DX010 (ip), vehicle: saline.
[15] abbreviates: endpoint: survival time, mean or median, dose: 6.25 mg/kg/injection, schedule: Q01DX010 (ip), vehicle: saline.
The mark [16] stands for this setting: endpoint: survival time, mean or median, dose: 12.5 mg/kg/injection, schedule: Q01DX010 (ip), vehicle: saline.

As to `NC(=O)N(CCCl)N=O`, the T/C by setting is: (endpoint: survival time, mean or median, dose: 0.5 mg/kg/injection, schedule: Q01DX010 (ip), vehicle: saline) 175 % of control; (endpoint: survival time, mean or median, dose: 1.0 mg/kg/injection, schedule: Q01DX010 (ip), vehicle: saline) 210 % of control; under setting [1], 100 % of control; (endpoint: survival time, mean or median, dose: 4.0 mg/kg/injection, schedule: Q01DX010 (ip), vehicle: saline) 105 % of control.

On to `CC1CN=C(c2ccc(NC(=O)c3ccc(C(=O)Nc4ccc(C5=NCC(C)N5)cc4)cc3)cc2)N1` (stereo not drawn), for which the T/C was 165 % of control under setting [2]; 156 % of control (endpoint: survival time, mean or median, dose: 15.0 mg/kg/injection, schedule: Q01DX010 (ip), vehicle: saline); 182 % of control (endpoint: survival time, mean or median, dose: 22.0 mg/kg/injection, schedule: Q01DX010 (ip), vehicle: saline); 186 % of control (endpoint: survival time, mean or median, dose: 33.0 mg/kg/injection, schedule: Q01DX010 (ip), vehicle: saline).

Regarding `Nc1nc(=S)c2ncn(C3OC(CO)C(O)C3O)c2[nH]1` (stereo not drawn), under setting [1], the T/C was 155 % of control.

Take `CN=C(NC)c1ccc(NC(=O)Nc2ccc(NC(=O)Nc3ccc(C(=NC)NC)cc3)cc2)cc1`: the T/C reads like this: (endpoint: survival time, mean or median, dose: 13.3 mg/kg/injection, schedule: Q01DX010 (ip), vehicle: saline) 108 % of control; under setting [3], 112 % of control.

`CC(=O)NC1=C(N2CC2)C(=O)C(NC(C)=O)=C(N2CC2)C1=O`: the T/C by setting is: (endpoint: survival time, mean or median, dose: 0.5 mg/kg/injection, schedule: Q01DX015 (ip), vehicle: carboxymethylcellulose (CMC)) 203 % of control; (endpoint: survival time, mean or median, dose: 1.0 mg/kg/injection, schedule: Q01DX015 (ip), vehicle: carboxymethylcellulose (CMC)) 103 % of control.

On to `O=c1[nH]c(=O)n(C2CC(O)C(CO)O2)cc1F` (stereo not drawn), for which the T/C was 100 % of control (endpoint: survival time, mean or median, dose: 5.0 mg/kg/injection, schedule: Q01DX010 (ip), vehicle: saline); 100 % of control and 105 % of control under setting [2]; 111 % of control and 116 % of control under setting [3]; 111 % of control under setting [4].

Regarding `O=C(O)c1[nH]c(=O)[nH]c(=O)c1F`, the T/C (endpoint: survival time, mean or median, dose: 13.0 mg/kg/injection, schedule: Q01DX015 (ip), vehicle: carboxymethylcellulose (CMC)) was 86 % of control.

As to `O=C1C(NC(=O)C2CCCCC2)=C(N2CC2)C(=O)C(NC(=O)C2CCCCC2)=C1N1CC1`, the T/C by setting is: (endpoint: survival time, mean or median, dose: 50.0 mg/kg/injection, schedule: Q01DX010 (ip), vehicle: saline) 88 % of control; (endpoint: survival time, mean or median, dose: 100.0 mg/kg/injection, schedule: Q01DX010 (ip), vehicle: saline) 94 % of control.

In the case of `O=c1cnn(C2OC(CO)C(O)C2O)c(=O)[nH]1` (stereo not drawn), the T/C reads like this: (endpoint: survival time, mean or median, dose: 800.0 mg/kg/injection, schedule: Q01DX010 (ip), vehicle: saline) 111 % of control; (endpoint: survival time, mean or median, dose: 1600.0 mg/kg/injection, schedule: Q01DX010 (ip), vehicle: saline) 100 % of control.

Regarding `Nc1cc(C(=O)Nc2ccc(C3=NCCN3)cc2)cc(C(=O)Nc2ccc(C3=NCCN3)cc2)c1`, the T/C was 116 % of control under setting [5], 120 % of control under setting [6] and 150 % of control under setting [7].

For `O=C(O)CC(NC(=O)CP(=O)(O)O)C(=O)O` (stereo not drawn), the T/C reads like this: (endpoint: median survival time, dose: 62.2 mg/kg/injection, schedule: Q04DX003 (ip), vehicle: saline) 99 % of control; (endpoint: median survival time, dose: 104.0 mg/kg/injection, schedule: Q04DX003 (ip), vehicle: saline) 99 % of control; (endpoint: median survival time, dose: 173.0 mg/kg/injection, schedule: Q04DX003 (ip), vehicle: saline) 97 % of control; (endpoint: median survival time, dose: 288.0 mg/kg/injection, schedule: Q04DX003 (ip), vehicle: saline) 107 % of control; (endpoint: median survival time, dose: 480.0 mg/kg/injection, schedule: Q04DX003 (ip), vehicle: saline) 92 % of control.

As to `COc1cc([C@@H]2c3cc4c(cc3[C@H](O)[C@H]3COC(=O)[C@@H]23)OCO4)cc(OC)c1OC`, the T/C under setting [8] was 112 % of control; the T/C under setting [9] was 150 % of control; the T/C (endpoint: survival time, mean or median, dose: 40.0 mg/kg/injection, schedule: Q01DX015 (ip), vehicle: carboxymethylcellulose (CMC)) was 167 % of control.

Take `Nc1ccc(OC(=O)Oc2ccc(N)cc2)cc1`: the T/C is 97 % of control (endpoint: survival time, mean or median, dose: 25.0 mg/kg/injection, schedule: Q01DX015 (ip), vehicle: saline); 102 % of control (endpoint: survival time, mean or median, dose: 50.0 mg/kg/injection, schedule: Q01DX015 (ip), vehicle: saline); 108 % of control (endpoint: survival time, mean or median, dose: 100.0 mg/kg/injection, schedule: Q01DX015 (ip), vehicle: saline); 104 % of control (endpoint: survival time, mean or median, dose: 200.0 mg/kg/injection, schedule: Q01DX015 (ip), vehicle: saline).

In the case of `CC1CCOS(=O)O1` (stereo not drawn), the T/C is 100 % of control under setting [2], 100 % of control under setting [3], 100 % of control under setting [4] and 88 % of control under setting [10].

On to `CS(=O)(=O)OCCCl`, for which the T/C is 100 % of control and 105 % of control under setting [11]; 100 % of control under setting [12]; 100 % of control and 111 % of control under setting [13].

As to `CN(C)c1nc(N(C)C)nc(N(C)C)n1`, the T/C is, setting by setting: under setting [11], 94 % of control and 102 % of control; under setting [12], 94 % of control; under setting [13], 97 % of control and 102 % of control; (endpoint: survival time, mean or median, dose: 150.0 mg/kg/injection, schedule: Q01DX010 (ip), vehicle: saline) 102 % of control and 107 % of control.

Turning to `O=C(O)CCCc1ccc(N(CCCl)CCCl)cc1`, the T/C under setting [14] was 100 % of control, the T/C under setting [15] is 105 % of control and the T/C under setting [16] was 122 % of control.

As to `OCC1OC(n2cnc3c(=S)nc[nH]c32)C(O)C1O` (stereo not drawn), the T/C is, setting by setting: under setting [3], 104 % of control and 116 % of control; under setting [4], 91 % of control and 108 % of control; under setting [10], 95 % of control and 116 % of control.

Regarding `CN(Cc1cnc2nc(N)nc(N)c2n1)c1c(Cl)cc(C(=O)NC(CCC(=O)O)C(=O)O)cc1Cl` (stereo not drawn), the T/C reads like this: (endpoint: survival time, mean or median, dose: 5.0 mg/kg/injection, schedule: Q01DX015 (ip), vehicle: carboxymethylcellulose (CMC)) 150 % of control; under setting [8], 164 % of control; (endpoint: survival time, mean or median, dose: 13.2 mg/kg/injection, schedule: Q01DX015 (ip), vehicle: carboxymethylcellulose (CMC)) 166 % of control; under setting [9], 164 % of control; (endpoint: survival time, mean or median, dose: 25.0 mg/kg/injection, schedule: Q01DX015 (ip), vehicle: carboxymethylcellulose (CMC)) 190 % of control; (endpoint: survival time, mean or median, dose: 30.0 mg/kg/injection, schedule: Q01DX015 (ip), vehicle: carboxymethylcellulose (CMC)) 181 % of control. The T/C is 179 % of control (endpoint: survival time, mean or median, dose: 45.0 mg/kg/injection, schedule: Q01DX015 (ip), vehicle: carboxymethylcellulose (CMC)); 164 % of control (endpoint: survival time, mean or median, dose: 67.5 mg/kg/injection, schedule: Q01DX015 (ip), vehicle: carboxymethylcellulose (CMC)); 121 % of control (endpoint: survival time, mean or median, dose: 100.0 mg/kg/injection, schedule: Q01DX015 (ip), vehicle: carboxymethylcellulose (CMC)).

For `NC(Cc1ccc(N(CCCl)CCCl)cc1)C(=O)O` (stereo not drawn), the T/C (endpoint: survival time, mean or median, dose: 4.0 mg/kg/injection, schedule: Q01DX010 (ip), vehicle: other) was 120 % of control and the T/C (endpoint: survival time, mean or median, dose: 8.0 mg/kg/injection, schedule: Q01DX010 (ip), vehicle: other) was 100 % of control.

Take `CCCCn1cnc2c(=S)nc[nH]c21`: the T/C under setting [5] was 105 % of control; the T/C under setting [6] is 100 % of control; the T/C under setting [7] is 111 % of control; the T/C (endpoint: survival time, mean or median, dose: 128.0 mg/kg/injection, schedule: Q01DX010 (ip), vehicle: saline) was 105 % of control.

For `C[C@H]1C(=O)O[C@@H]2CCN3CC=C(COC(=O)[C@](C)(O)[C@@]1(C)O)[C@H]23`, the T/C under setting [14] is 94 % of control and 100 % of control; the T/C under setting [15] was 100 % of control and 105 % of control; the T/C under setting [16] is 88 % of control and 94 % of control; the T/C (endpoint: survival time, mean or median, dose: 25.0 mg/kg/injection, schedule: Q01DX010 (ip), vehicle: saline) is 100 % of control.
